The values that follow come from US20080262040A1, “Chemical Compounds” (SMITHKLINE BEECHAM CORPORATION, priority 2005, published 2008).

The target in the assay is T1, Recombinant human IKKβ (residues 1-737) (IKK2) (Homo sapiens, UniProt O14920).
T1 construct: Recombinant human IKKβ (residues 1-737) was expressed in baculovirus; GST (C); made in house
T1 sequence (O14920 1-737): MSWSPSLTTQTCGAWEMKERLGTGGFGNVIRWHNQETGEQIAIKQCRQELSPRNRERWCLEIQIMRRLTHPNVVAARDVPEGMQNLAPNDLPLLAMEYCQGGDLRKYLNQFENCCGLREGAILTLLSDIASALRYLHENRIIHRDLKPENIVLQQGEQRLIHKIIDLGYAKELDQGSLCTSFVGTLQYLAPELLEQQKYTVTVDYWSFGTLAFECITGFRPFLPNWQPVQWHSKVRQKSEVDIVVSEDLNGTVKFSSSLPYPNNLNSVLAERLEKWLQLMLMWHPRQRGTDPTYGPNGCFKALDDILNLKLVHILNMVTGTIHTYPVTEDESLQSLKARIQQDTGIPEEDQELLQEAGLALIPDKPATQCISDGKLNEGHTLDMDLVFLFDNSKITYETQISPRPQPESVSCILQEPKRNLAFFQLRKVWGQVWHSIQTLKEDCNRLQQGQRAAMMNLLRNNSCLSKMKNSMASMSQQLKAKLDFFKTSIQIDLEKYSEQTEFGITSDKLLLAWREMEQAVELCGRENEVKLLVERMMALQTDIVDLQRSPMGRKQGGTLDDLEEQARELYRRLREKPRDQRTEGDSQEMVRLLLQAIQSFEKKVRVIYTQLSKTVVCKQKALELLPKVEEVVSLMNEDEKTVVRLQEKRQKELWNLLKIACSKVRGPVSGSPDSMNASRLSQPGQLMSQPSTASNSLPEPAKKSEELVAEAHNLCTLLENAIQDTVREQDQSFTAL
The assay is described as follows: IKK2 TR-FRET assay. Format: biochemical. The note with it: IKK2 5 nM, GST-IκBα 25 nM, ATP 1 μM, 30 minutes at room temperature, read-out: pIC50 against IKK2 (converted). As for the experimental part: Recombinant human IKKβ (residues 1-737) was expressed in baculovirus as a C-terminal GST-tagged fusion protein, and its activity was assessed using a time-resolved fluorescence resonance energy transfer (TR-FRET) assay. Briefly, IKK2 (5 nM final) diluted in assay buffer (50 mM HEPES, 10 mM MgCl2, 1 mM CHAPS pH 7.4 with 1 mM DTT and 0.01% w/v BSA) was added to wells containing various concentrations of compound or DMSO vehicle (3% final). The reaction was initiated by the addition of GST-IκBα substrate (25 nM final)/ATP (1 μM final), in a total volume of 30 μl. The reaction was incubated for 30 minutes at room temperature, then terminated by the addition of 15 μl of 50 mM EDTA. Detection reagent (15 μl) in buffer (100 mM HEPES pH 7.4, 150 mM NaCl and 0.1% w/v BSA) containing antiphosphoserine-IκBα-32/36 monoclonal antibody 12C2 (Cell Signalling Technology, Beverly Mass., USA) labelled with W-1024 europium chelate (Wallac O Y, Turku, Finland), and an APC-labelled anti-GST antibody (Prozyme, San Leandro, Calif., USA) was added and the reaction was further incubated for 60 minutes at room temperature. The degree of phosphorylation of GST-IκBα was measured using a Packard Discovery plate reader (Perkin-Elmer Life Sciences, Pangbourne, UK) as a ratio of specific 665 nm energy transfer signal to reference europium 620 nm signal.
(In general: Time-resolved FRET reads energy transfer from a long-lived donor to a nearby acceptor.)
Turning to `CC(C)(C)OC(=O)N1CCC(n2ncc3c(C(N)=O)cc(-c4ccccc4)cc32)CC1` [Example 1, 1,1-dimethylethyl-4-[4-(aminocarbonyl)-6-phenyl-1H-indazol-1-yl]-1-piperidinecarboxylate], the IC50 is not above 10 µM.

In the case of `NC(=O)c1cc(-c2ccccc2)cc2c1cnn2C1CCNCC1` [Example 2, 6-phenyl-1-(4-piperidinyl)-1H-indazole-4-carboxamide], the IC50 was not above 10 µM. `NC(=O)c1cc(-c2ccccc2)cc2[nH]ncc12` [Example 3, 6-phenyl-1H-indazole-4-carboxamide]: the IC50 was not above 10 µM. The figure for `NC(=O)c1cc(-c2ccccc2)cc2c1cnn2C1CCN(S(=O)(=O)c2ccc(F)cc2)CC1` [Example 4, 1-{1-[(4-fluorophenyl)sulfonyl]-4-piperidinyl}-6-phenyl-1H-indazole-4-carboxamide] is not above 10 µM; for `Cn1cnc(S(=O)(=O)N2CCC(n3ncc4c(C(N)=O)cc(-c5ccccc5)cc43)CC2)c1` [Example 5, 1-{1-[(1-methyl-1H-imidazol-4-yl)sulfonyl]-4-piperidinyl}-6-phenyl-1H-indazole-4-carboxamide] it is not above 10 µM. The same measure for `CCC(=O)N1CCC(n2ncc3c(C(N)=O)cc(-c4ccccc4)cc32)CC1` [Example 6, 6-phenyl-1-(1-propanoyl-4-piperidinyl)-1H-indazole-4-carboxamide]: not above 10 µM. The figure for `CCS(=O)(=O)N1CCC(n2ncc3c(C(N)=O)cc(-c4ccccc4)cc32)CC1` [Example 7, 1-[1-(ethylsulfonyl)-4-piperidinyl]-6-phenyl-1H-indazole-4-carboxamide] is not above 10 µM; for `NC(=O)c1cc(-c2ccccc2)cc2c1cnn2C1CCN(C(=O)c2ccccc2)CC1` [Example 8, 6-phenyl-1-[1-(phenylcarbonyl)-4-piperidinyl]-1H-indazole-4-carboxamide] it is not above 10 µM; for `NC(=O)c1cc(-c2ccccc2)cc2c1cnn2C1CCN(S(=O)(=O)c2ccccc2)CC1` [Example 9, 6-phenyl-1-[1-(phenylsulfonyl)-4-piperidinyl]-1H-indazole-4-carboxamide] it is not above 10 µM. Take `CC(C)(C)OC(=O)N1CCCC(n2ncc3c(C(N)=O)cc(-c4ccccc4)cc32)C1` (stereo not shown) [Example 12, 1,1-dimethylethyl-3-[4-(aminocarbonyl)-6-phenyl-1H-indazol-1-yl]-1-piperidinecarboxylate]: the IC50 is not above 10 µM. Consider `CCS(=O)(=O)N1CCCC(n2ncc3c(C(N)=O)cc(-c4ccccc4)cc32)C1` (stereo not shown) [Example 14, 1-[1-(ethylsulfonyl)-3-piperidinyl]-6-phenyl-1H-indazole-4-carboxamide], for which the IC50 was not above 10 µM. The figure for `Cn1cnc(S(=O)(=O)N2CCCC(n3ncc4c(C(N)=O)cc(-c5ccccc5)cc43)C2)c1` (stereo not shown) [Example 15, 1-{1-[(1-methyl-1H-imidazol-4-yl)sulfonyl]-3-piperidinyl}-6-phenyl-1H-indazole-4-carboxamide] is more than 15.8 µM; for `CCC(=O)N1CCCC(n2ncc3c(C(N)=O)cc(-c4ccccc4)cc32)C1` (stereo not shown) [Example 16, 6-phenyl-1-(1-propanoyl-3-piperidinyl)-1H-indazole-4-carboxamide] it is more than 15.8 µM; for `NC(=O)c1cc(-c2ccccc2)cc2c1cnn2C1CCCN(C(=O)c2ccccc2)C1` (stereo not shown) [Example 17, 6-phenyl-1-[1-(phenylcarbonyl)-3-piperidinyl]-1H-indazole-4-carboxamide] it is more than 15.8 µM. The same measure for `NC(=O)c1cc(-c2ccccc2)cc2c1cnn2C1CCCN(S(=O)(=O)c2ccccc2)C1` (stereo not shown) [Example 18, 6-phenyl-1-[1-(phenylsulfonyl)-3-piperidinyl]-1H-indazole-4-carboxamide]: more than 15.8 µM; for `NC(=O)c1cc(-c2ccccc2)cc2c1cnn2C1CCCN(S(=O)(=O)c2ccc(F)cc2)C1` (stereo not shown) [Example 19, 1-{1-[(4-fluorophenyl)sulfonyl]-3-piperidinyl}-6-phenyl-1H-indazole-4-carboxamide]: more than 15.8 µM.
